Assay results reported in patent US6579983B1, “5-cyano-2-aminopyrimidine derivatives” (Celltech R&D Limited, priority 1999, dated 2003).

melting point	Structure (SMILES)
267 to 271 °C (dec.)	CC(C)(N)c1ccc(-c2nc(Nc3ccc4[nH]ncc4c3)ncc2C#N)cc1 [Example 8, 4-[4-(1-Amino-1-methylethyl)phenyl]-5-cyano-N-(indazol-5-yl)pyrimidine-2-amine]
167 to 168 °C	COc1cc(Nc2ncc(C#N)c(-c3ccc(C(C)(C)N)cc3)n2)cc(OC)c1OC [Example 9, 4-[4-(1-Amino-1-methylethyl)phenyl]-5-cyano-N-(3,4,5-trimethoxyphenyl)pyrimidine-2-amine]
